In test [1] the test system is primary human naïve CD8+ T cells. In kind it is cell-based.
The next test concerns CoV2 RBD protein. On the set-up: species or system SARS-CoV-2. The conditions noted are these: in vivo.
In another test the test system is murine CD8+ T cells. Briefly: IFN-γ expression and proliferation of murine CD8+ T cells. In kind it is cell-based, mouse.

Consider IL-15, for which, in test [1], the “TMSC expansion in culture” value was “significantly expanded TMSCs” and the TMSC formation result is given as “only a moderate advantage”. On to “Polyinosinic:polycytidylic acid [poly(I:C)]”, for which, in the test with CoV2 RBD protein, the humoral response result is reported as “strong humoral response” and the “ratio of IgG2b to IgG1 titer” value was “balanced Th1/Th2 profile or Th2-dominant response”. On to `CC(=O)O/N=C1/C(=C2/C(=O)Nc3cc(Br)ccc32)Nc2ccccc21` [BIO-acetoxime], for which the “development of TMSCs” value in test [1] is on record as “promoted the development of TMSCs”. In the case of `Nc1cccc(-c2cc3c(Oc4cccc(O)c4)ncnc3[nH]2)c1.O=C(O)C(F)(F)F.O=C(O)C(F)(F)F` [TWS119], the TMSC formation entry in test [1] is reported as “could not induce TMSC formation”. In addition, in the test on murine CD8+ T cells (4 days post treatment), the IFN-γ expression result was “inhibited”. In addition, in the test with murine CD8+ T cells (CFSE proliferation staining), the T cell proliferation result is recorded as “inhibited”. Turning to 6-bromo-substituted indirubin [BIO], the “development of TMSCs” value in test [1] is recorded as “promoted the development of TMSCs”. Regarding `O=C1Cc2c([nH]c3ccc(Br)cc23)-c2ncccc2N1` [1-Azakenpaullone], the “development of TMSCs” value in test [1] was “promoted the development of TMSCs”.

B1: IL-7 (protein, UniProt P13232 26-177, looked up)
Interleukin-7: DCDIEGKDGKQYESVLMVSIDQLLDSMKEIGSNCLNNEFNFFKRHICDANKEGMFLFRAARKLRQFLKMNSTGDFDLHLLKVSEGTTILLNCTGQVKGRKPAALGEAQPTKSLEENKSLKEQKKLNDLCFLKRLLQEIKTCWNKILMGTKEH
For the molecule B1, in test [1], the “TMSC expansion in culture” value is “significantly expanded TMSCs” and the TMSC formation entry is listed as “only a moderate advantage”.
